For the test, the system named is Tie2+ ECs (HMVEC-LBl). In words: MTS cell viability assay, endothelial cells. The class given is cell-based, human. The settings on record: for IC50: Homo sapiens, Endothelial cell, 48 h, SU in MTS viability assay, predetermined from dose-response curves, cell line of IC50 not clearly printed. The protocol: TCs were cultured in DMEM High Glucose basal media supplemented with 5% FBS and grown humidified incubators at 37 °C, 21%O2 and 5%CO2 unless otherwise specified. LM2-4 luc is a highly metastatically aggressive variant of the human breast carcinoma MDA-MB-231 cell line (derived through serial in vivo selection of lung metastases from orthotopic implantations in immunodeficient mice) that has been transfected with a firefly luciferase vector (Man et al, 2007; Ebos et al, 2009). HT29luc is a human colon carcinoma cell line also transfected with the luciferase gene (Hackl et al, 2013). SN12luc refers to a luciferase-tagged and highly metastatic clone of a human renal cell carcinoma cell line, SN12-PM6-L1luc (Jedeszko et al, 2015). MeWo is a human melanoma cell line (Ebos et al, 2009).
2. Endothelial cells (ECs)
ECs were grown in humidified incubators at 37 °C, 21%O2 and 5%CO2 unless otherwise specified.
Primary human microvascular ECs derived from adult lung blood vessels (HMVEC-LBl, Lonza CC-2815 or HLMEC ) or neonatal dermal blood vessels (HMVEC-DBl, Lonza CC-2813 or HDMEC) were grown in EBM-2 basal media (Lonza CC-3156), supplemented with EGM-2-MV growth factors (Lonza CC-4147, which includes 5% FBS and 2 ng/mL VEGF). Primary human umbilical vein ECs (HUVECs) were grown on 1% gelatinized plates in F12K media, supplemented with 10% FBS, 0.1 mg/mL heparin sodium, 10 ng/mL EGF, 10 ng/mL VEGF, 5 ng/mL bFGF and penicillin + streptomycin + 2mM L-glutamine (P/S/Glut). Transformed human EA.hy926 and murine MS1 ECs were grown in DMEM + 10% FBS + P/S/Glut (+ HAT for EA.hy926).
3. […]
5,000 LM2-4luc or HMVEC-LBl cells, in 100uL of their regular growth media, were seeded per well on a 96-well plate. […] Absorbances were read at 490nm and background-corrected with reference 560nm readings or acellular treatment-only […]
4. […] Protein concentrations in TC-CM vs. control media were measured using: a Quantikine ELISA kit (R&D Systems DVE00) for human VEGF; a FlowCytomix Multiplex kit (eBioscience BMS810FF) for human IL-6 and IL-8; and a BCA protein assay kit (Thermo Scientific) for total protein.

Consider `CCN(CC)CCNC(=O)c1c(C)[nH]c(/C=C2\C(=O)Nc3ccc(F)cc32)c1C` [sunitinib, reference compound], for which the IC50 (in general, the concentration at which inhibition is half-maximal) turned out to be 5 µM ('VEGF-rich' media (0.5% FBS + 50 ng/mL VEGF)) and 2 µM ('normal' media (5% FBS)).

On to “CHHHRHSF [Vasculotide, 4-armed maleimide-functionalized polyethylene glycol (PEG) backbone to link together four cysteine-capped T7 peptides, that is, CHHHRHSF]”, for which the “interference with SU inhibition of ECs” value (48 h MTS, VT + SU, Supplementary Fig S2) is “did not interfere with SU inhibition of Tie2^+ ECs”.

The record behind these values is paper PMC4459817, “Vasculotide reduces endothelial permeability and tumor cell extravasation in the absence of binding to or agonistic activation of Tie2” (EMBO Molecular Medicine, 2015).
